Test results from US10231956B2, “3-(1H-pyrrolo[3,2-C]pyridin-2-YL)-1 H-pyrazolo[4,3-B]pyridines and therapeutic uses thereof” (Samumed, LLC, priority 2015, dated 2019).

Assays:
[1] = test system: Wnt activity (Sp5-Luc reporter, SW480 colon carcinoma cells); experiment: Sp5-Luc reporter gene screening assay for Wnt activity in SW480 cells; type: cell-based; details: Homo sapiens; for EC50: luminescence, overnight incubation; for inhibition at 10 µM: given for EC50 >10 μM, read-out: percent inhibition at 10 μM
How it was run: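 SW480 cells stably transduced with an Sp5 promoter (eight TCF/LEF sites)–firefly luciferase lentiviral reporter, plated at 4,000 cells/well in 1% FBS medium with compounds (10-point 1:3 series from 10 μM, 0.1% DMSO) overnight at 37 °C. BrightGlo luminescence normalised to DMSO; EC50 by four-parameter fit, else % inhibition at 10 μM.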

[2] = test system: primary human fibroblasts derived from IPF patients (LL29 cells); experiment: Inhibition of fibrotic process: αSMA staining in TGF-β1 treated LL29 fibroblasts; type: cell-based; details: Fibroblast; for EC50: 96 h, TGF-β1 20 ng/mL, 4 days, % cells positive for αSMA; for inhibition at 10 µM: given for EC50 >10 μM, TGF-β1, αSMA, read-out: percent inhibition at 10 μM
How it was run: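 LL29 cells at 1,500/well in F12 with 1% FBS, compounds at 1 μM–1.87 nM (11-point, 0.1% DMSO), TGF-β1 20 ng/mL added 1 h later, 4 days at 37 °C. SYTOX-positive cells excluded; % αSMA-positive cells by immunofluorescence imaging, normalized to TGF-β1/DMSO wells, triplicates fitted for EC50; above 10 μM, % inhibition at 10 μM given.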

Row | SMILES | EC50 [1] [nM] | EC50 [2] [nM] | inhibition at 10 µM [2] [%] | inhibition at 10 µM [1] [%]
1 | CS(=O)(=O)NCc1cc(F)cc(-c2nccc3[nH]c(-c4n[nH]c5ccc(-c6cncc(NC(=O)C7CCCC7)c6)nc45)cc23)c1 [Compound 498, N-(5-(3-(4-(3-Fluoro-5-(methylsulfonamidomethyl)phenyl)-1H-pyrrolo[3,2-c]pyridin-2-yl)-1H-pyrazolo[4,3-b]pyridin-5-yl)pyridin-3-yl)cyclopentanecarboxamide] | 1310 | > 10000 | 34.8 | –
2 | CS(=O)(=O)NCc1cc(F)cc(-c2nccc3[nH]c(-c4n[nH]c5ccc(-c6ccccn6)nc45)cc23)c1 [Compound 504, N-(3-Fluoro-5-(2-(5-(pyridin-2-yl)-1H-pyrazolo[4,3-b]pyridin-3-yl)-1H-pyrrolo[3,2-c]pyridin-4-yl)benzyl)methanesulfonamide] | 2140 | 1940 | – | –
3 | Fc1cccc(-c2nccc3[nH]c(-c4n[nH]c5ccc(-c6cncc(OCc7ccccc7)c6)nc45)cc23)c1 [Compound 518, 5-(5-(Benzyloxy)pyridin-3-yl)-3-(4-(3-fluorophenyl)-1H-pyrrolo[3,2-c]pyridin-2-yl)-1H-pyrazolo[4,3-b]pyridine] | 4410 | 1040 | – | –
4 | Fc1ccc(-c2nccc3[nH]c(-c4n[nH]c5ccc(-c6cncc(OC7CCNCC7)c6)nc45)cc23)cc1 [Compound 528, 3-(4-(4-Fluorophenyl)-1H-pyrrolo[3,2-c]pyridin-2-yl)-5-(5-(piperidin-4-yloxy)pyridin-3-yl)-1H-pyrazolo[4,3-b]pyridine] | 3830 | 1440 | – | –
5 | c1cc2[nH]c(-c3n[nH]c4ccc(-c5cncc(OC6CCCCC6)c5)nc34)cc2c(N2CCCCC2)n1 [Compound 607, 5-(5-(Cyclohexyloxy)pyridin-3-yl)-3-(4-(piperidin-1-yl)-1H-pyrrolo[3,2-c]pyridin-2-yl)-1H-pyrazolo[4,3-b]pyridine] | 2660 | > 10000 | 25.4 | –
6 | O=C(CC1CCNCC1)Nc1cncc(-c2ccc3[nH]nc(-c4cc5c(N6CCCCC6)nccc5[nH]4)c3n2)c1 [Compound 609, N-(5-(3-(4-(Piperidin-1-yl)-1H-pyrrolo[3,2-c]pyridin-2-yl)-1H-pyrazolo[4,3-b]pyridin-5-yl)pyridin-3-yl)-2-(piperidin-4-yl)acetamide] | > 10000 | 1080 | – | 13.3
7 | CN1CCN(c2nccc3[nH]c(-c4n[nH]c5ccc(-c6cncc(NC(=O)CC7CCNCC7)c6)nc45)cc23)CC1 [Compound 641, N-(5-(3-(4-(4-Methylpiperazin-1l-yl)-1H-pyrrolo[3,2-c]pyridin-2-yl)-1H-pyrazolo[4,3-b]pyridin-5-yl)pyridin-3-yl)-2-(piperidin-4-yl)acetamide] | > 10000 | 5000 | – | 2.1
8 | c1cc2[nH]c(-c3n[nH]c4ccc(-c5cncc(OCCN6CCCC6)c5)nc34)cc2cn1 [Compound 658, 5-(5-(2-(Pyrrolidin-1-yl)ethoxy)pyridin-3-yl)-3-(1H-pyrrolo[3,2-c]pyridin-2-yl)-1H-pyrazolo[4,3-b]pyridine] | 3910 | 4750 | – | –

Molecules with a lower EC50 [1], results first:

Row | EC50 [1] [nM] | SMILES | EC50 [2] [nM] | inhibition at 10 µM [2] [%] | inhibition at 10 µM [1] [%]
9 | 1140 | CS(=O)(=O)NCc1cc(F)cc(-c2nccc3[nH]c(-c4n[nH]c5ccc(-c6cncc(NC(=O)C7CCCCC7)c6)nc45)cc23)c1 [Compound 499, N-(5-(3-(4-(3-Fluoro-5-(methylsulfonamidomethyl)phenyl)-1H-pyrrolo[3,2-c]pyridin-2-yl)-1H-pyrazolo[4,3-b]pyridin-5-yl)pyridin-3-yl)cyclohexanecarboxamide] | 958 | – | –
10 | 745 | CS(=O)(=O)NCc1cc(F)cc(-c2nccc3[nH]c(-c4n[nH]c5ccc(-c6cncnc6)nc45)cc23)c1 [Compound 503, N-(3-Fluoro-5-(2-(5-(pyrimidin-5-yl)-1H-pyrazolo[4,3-b]pyridin-3-yl)-1H-pyrrolo [3,2-c]pyridin-4-yl)benzyl)methanesulfonamide] | > 10000 | 0 | –
11 | 590 | Fc1ccccc1-c1nccc2[nH]c(-c3n[nH]c4ccc(-c5cn[nH]c5)nc34)cc12 [Compound 539, 3-(4-(2-Fluorophenyl)-1H-pyrrolo[3,2-c]pyridin-2-yl)-5-(1H-pyrazol-4-yl)-1H-pyrazolo[4,3-b]pyridine] | 33 | – | –
12 | 502 | CS(=O)(=O)NCc1cc(F)cc(-c2nccc3[nH]c(-c4n[nH]c5ccc(-c6cncc(CN7CCC(F)(F)C7)c6)nc45)cc23)c1 [Compound 502, N-(3-(2-(5-(5-((3,3-Difluoropyrrolidin-1-yl)methyl)pyridin-3-yl)-1H-pyrazolo[4,3-b]pyridin-3-yl)-1H-pyrrolo[3,2-c]pyridin-4-yl)-5-fluorobenzyl) methanesulfonamide] | 218 | – | –
13 | 100 | Cc1ncc(-c2ccc3[nH]nc(-c4cc5c(-c6ccncc6)nccc5[nH]4)c3n2)n1C [Compound 573, 5-(1,2-Dimethyl-1H-imidazol-5-yl)-3-(4-(pyridin-4-yl)-1H-pyrrolo[3,2-c]pyridin-2-yl)-1H-pyrazolo[4,3-b]pyridine] | 73 | – | –
